Results reported in patent publication US12075697B2, “Inert solution-processable molecular chromophores for organic electronic devices” (The Regents of the University of California, priority 2012, dated 2024).

Columns and labels:
Format in all cases: physicochemical
[1] = UV-visible absorption spectroscopy; conditions: for optical band gap: from λonset
Procedure: (§1) Optical properties were investigated using UV-visible absorption spectroscopy. […] Solution cyclic voltammetry measurements indicated the highest occupied molecular orbital (HOMO) and lowest unoccupied molecular orbital (LUMO) were −5.12 and −3.34 eV, respectively, and line up appropriately with the frontier molecular orbitals of common fullerene acceptors.
UV-vis: UV-visible spectroscopy were recorded using either a Beckman Coulter DU 800 series or Perkin Elmer Lambda 750 spectrophotometer at room temperature unless otherwise noted. All solution UV-vis experiments were run in CHCl3. Films were prepared by spin-coating CHCl3 or chlorobenzene solutions onto glass substrates. Films were annealed directly on a hot plate for 2 minutes.

[2] = Acid sensitivity: solution absorption profile as function of trifluoroacetic acid concentration; conditions: trifluoroacetic acid in chloroform, up to ten equivalents
Text: To probe acid sensitivity, the solution absorption profiles of p-DTS(FBTTh2)2 (see Scheme 1, above) and d-DTS(PTTh2)2
[drawing 71] a pyridine-containing analog, were monitored as function of concentration of trifluoroacetic acid.

[3] = Solution cyclic voltammetry (HOMO/LUMO levels)
Procedure: as §1
Electrochemistry: All electrochemical measurements were performed using CHI instrument model 730B in a standard three-electrode, one compartment configuration equipped with Ag/AgCl electrode, Pt wire and Glassy carbon electrode (dia. 3 mm), as the pseudo reference, counter electrode and working electrode respectively. Glassy carbon electrodes were polished with alumina. The cyclic voltammetry (CV) experiments were performed in anhydrous dichloromethane solution with ˜0.1 M tetrabutylammonium hexafluorophosphate (TBAPF6) as the supporting electrolyte at scan rate 50 mV/s unless otherwise stated. All electrochemical solutions were purged with dry Ar for 15 minutes to deoxygenate the system. Solution CV measurements were carried out with a small molecule concentration of ˜1 mg/mL in CH2Cl2. Ferrocene was used as an internal standard. The HOMO and LUMO levels were obtained by correlating the onsets (Eox^Fc/Fc+, Erd^Fc/Fc+) to the normal hydrogen electrode (NHE), assuming HOMO of Fc/Fc^+ to be 4.88 eV.

Compound: CCCCCCc1ccc(-c2ccc(-c3cc(F)c(-c4cc5c(s4)-c4sc(-c6c(F)cc(-c7ccc(-c8ccc(CCCCCC)s8)s7)c7nsnc67)cc4[Si]5(CC(CC)CCCC)CC(CC)CCCC)c4nsnc34)s2)s1 (stereo not drawn) [p-DTS(FBTTh2)2, 7,7′-(4,4-bis(2-ethylhexyl)-4H-silolo[3,2-b:4,5-b′]dithiophene-2,6-diyl)bis(6-fluoro-4-(5′-hexyl-[2,2′-bithiophen]-5-yl)benzo[c][1,2,5]thiadiazole)]
- λmax ([1]; solid state (thin film)): 678 nm
- λonset ([1]; solid state (thin film)): 800 nm
- optical band gap ([1]; solid state): 1.55 eV
- λmax ([1]; solution (chloroform)): 590 nm
- λonset ([1]; solution (chloroform)): 670 nm
- optical band gap ([1]; solution (chloroform)): 1.85 eV
- change of absorption spectrum on addition of acid [2]: remains effectively unchanged
- highest occupied molecular orbital (HOMO) [3]: −5.12 eV
- lowest unoccupied molecular orbital (LUMO) [3]: −3.34 eV
